In patent publication US9738670B2, “Pentaaza macrocyclic ring complexes possessing oral bioavailability” (Galera Labs, LLC, priority 2015, dated 2017):

Test: Intraduodenal (id) bioavailability screen in minipigs, oil formulations, vs iv parent dichloro complex
Type: in vivo, Gottingen minipig
Conditions: for Mini-Pig BioA: id 10 mg/kg, 10% by weight formulation, AUC0->24 h vs iv 1 mg/kg parent chloro complex
Procedure: Compounds were screened for oral bioavailability by injecting the formulated prodrugs directly into the duodenum (intraduodenal or id administration) of the minipig test subjects, thus bypassing the acidic environment of the stomach and thereby eliminating potentially misleading oral bioavailability results that could arise from alteration of the test article drug in the acid environment of the stomach.
The studies were conducted at Xenometrics LLC (Stillwell, Kans.) and the Id bioavailability was determined using various axial ligand derivative complexes of GC4419, GC4444, GC4403 and GC4401.
*Where the iv dose is 1 mg of test article drug per kilogram body weight of the mini-pig, and the dose administered id is 10 mg of test article drug per kg body weight of the mini-pig.
Male Gottingen minipigs (4-5 mo old, 9-12 kg weight) were purchased from Marshall BioResources and housed at Xenometrics. […] The distal end was exteriorized with a reusable accessible hub (see surgical details below). During a recovery period of at least 2 weeks the minipigs were handled daily to acclimate them to the test procedures, i.e., id dosing and blood collections. For each experiment, each minipig received a test article drug dissolved or suspended in an excipient vehicle. […] All dosing experiments were conducted in fasted animals. Food was withdrawn from the minipigs 16 hours before dosing. The minipigs had ad libitum access to water. Dosed minipigs were allowed access to food 6 hour after dosing. The test article was administered at a dose of 10 mg/kg parent drug in 0.1 m L/kg vehicle (e.g., 1.5 mL in 15 kg minipig) as a bolus injection (˜1 minute) via the id cannula. The actual amount of total test article drug administered varied with the formula weight of the prodrug. An equal volume of excipient vehicle was used to flush the cannula after the test article was administered. Approximately 6 hours later, corn oil was used to flush the cannula. After approximately 24 hours post-dose, the catheter was flushed with sterile saline solution and capped. At the following time-points 0.25, 0.5, 1, 2, 4, 8, 24 and 48 hour post-injection, 2 mL blood samples were collected by cranial vena cava puncture (4 mL Sodium heparin Vacutainer, 20 g 1.5″ needle) after the skin surface was wiped with ethanol. The minipig was placed in a sling in a recumbent position without anesthesia for the collection of blood samples. The minipigs were never used more than once per 7 days for experimentation. The blood samples were kept on ice until processed for plasma. Blood samples were centrifuged at 1200×g for ten minutes at 4° C. and plasma samples were transferred to 96 well plate tubes, capped and stored at −20° C. until shipment on dry ice to the analytical laboratory used for measuring the concentration of drug in the plasma. The concentration of the parent manganese pentaaza macrocylic ring complex (independent of the composition of the axial ligands) was measured in plasma using a validated HPLC/MS/MS method that is linear between 50 ng/mL and 20,000 ng/mL.
The oils used for preparing the dosing solutions were used as supplied from commercial sources. The Capmul MCM (NF) is a mixture of mono/diglycerides of caprylic/capric acids and was supplied by ABITEC Corporation, Janesville, Wis. The Miglyol 812 N is a mixture of caprylic/capric acid triglycerides and was supplied by Cremer Oleo Division, Eatontown, N.J. Labrafil M 2125 CS (NF) is chemically defined to be linoleoyl polyoxyl-6 glycerides NF and was supplied by Gattefosse, SAINT-PRIEST Cedex, France. Peceol is chemically defined to be the monoglyceride, glyceryl monooleate NF, and was supplied by Gattefosse, SAINT-PRIEST Cedex, France. Maisine 35-1 is chemically defined to be the monoglyceride glyceryl monolinoleate (NF) and was supplied by Gattefosse, SAINT-PRIEST Cedex, France. Labrasol (NF) is chemically defined to be caprylocaproyl polyoxyl-8 glycerides NF and was supplied by Gattefosse, SAINT-PRIEST Cedex, France. […]

Row | Molecule | Mini-Pig BioA (base oil Capmul MCM) | Mini-Pig BioA (base oil Maisine 35-1) | Mini-Pig BioA (base oil Peceol) | Mini-Pig BioA (base oil Labrafil M2125 CS) | further results
1 | C[C@@H]1CN[C@@H]2CCCC[C@H]2NCc2cccc(n2)CN[C@@H]2CCCC[C@H]2N1.[Cl][Mn][Cl] [GC4444, reference compound] | 14% |  |  |  | 
2 | Manganese(II)bis-Benzoato[(4aS,13aS,17aS,21aS)-1,2,3,4,4a,5,6,12,13,13a,14,15,16,17,17a,18,19,20,21,21a-Eicosahydro-11,7-nitrilo-7H-dibenzo[b,h][1,4,7,10] tetraazacycloheptadecine-KN5, KN13, KN18, KN21, KN22]- [GC4712] | 24% | 18% | 29% |  | 
3 | Manganese(II)bis-L--valinato[(4aS,13aS,17aS,21aS)-1,2,3,4,4a,5,6,12,13,13a,14,15,16,17,17a,18,19,20,21,21a- Eicosahydro-11,7-nitrilo-7H-dibenzo[b,h][1,4,7,10] tetraazacyclo-heptadecine-KN5, KN13, KN18, KN21, KN22]- [GC4746] | 13% |  |  |  | 
4 | Manganese(II)bis-L-Lactato[(4aS,13aS,17aS,21aS)-1,2,3,4,4a,5,6,12,13,13a,14,15,16,17,17a,18,19,20,21,21a-Eicosahydro-11,7-nitrilo-7H-dibenzo[b,h][1,4,7,10] tetraazacycloheptadecine-KN5, KN13, KN18, KN21, KN22]- [GC4714] | 36% |  |  |  | 
5 | Manganese(II)bis-L-phenylalaninato[(4aS,13aS,17aS,21aS)-1,2,3,4,4a,5,6,12,13,13a,14,15,16,17,17a,18,19,20,21,21a-Eicosahydro-11,7-nitrilo-7H-dibenzo[b,h][1,4,7,10] tetraazacyclo-heptadecine-KN5, KN13, KN18, KN21, KN22]- [GC4704] | 10% |  |  |  | 
6 | Manganese(II)bis-L-phenylglycinato[(4aS,13aS,17aS,21aS)-1,2,3,4,4a,5,6,12,13,13a, 14,15,16,17,17a,18,19,20,21,21a-Eicosahydro-11,7-nitrilo-7H-dibenzo[b,h][1,4,7,10] tetraazacyclo-heptadecine-KN5, KN13, KN18, KN21, KN22]- [GC4702] | 43% |  | 29% | 25% | Mini-Pig BioA (base oil Miglyol 812N): 42%; bioavailability / absorption, in words (minipig id dosing, comparison between axial ligands): much better absorbed
7 | Manganese(II)bis-acetato[(4aS,13aS,17aS,21aS)-1,2,3,4,4a,5,6,12,13,13a,14,15,16,17, 17a,18,19,20,21,21a-Eicosahydro-11,7-nitrilo-7H-dibenzo[b,h][1,4,7,10] tetraazacycloheptadecine-KN5,KN13,KN18,KN21,KN22]- [GC4701] | 15% | 8% | 11% | 16% | 
8 | Manganese(II)bis-cyclohexanebutyrato[(4aS,13aS,17aS,21aS)-1,2,3,4,4a,5,6,12,13,13a, 14,15,16,17,17a,18,19,20,21,21a-Eicosahydro-11,7-nitrilo-7H-dibenzo[b,h][1,4,7,10] tetraazacyclo-heptadecine-KN5, KN13, KN18, KN21, KN22]- [GC4707] | 9% |  |  |  | 
9 | Manganese(II)bis-dodecanoato[(4aS,13aS,17aS,21aS)-1,2,3,4,4a,5,6,12,13, 13a,14,15,16,17,17a,18,19,20,21,21a-Eicosahydro-11,7-nitrilo-7H-dibenzo[b,h][1,4,7,10] tetraazacycloheptadecine-KN5, KN13, KN18, KN21, KN22]- [GC4708] | 12% |  |  |  | 
10 | Manganese(II)bis-n-Butyrato[(4aS,13aS,17aS,21aS)-1,2,3,4,4a,5,6,12,13,13a,14,15,16,17,17a,18,19,20,21,21a-Eicosahydro-11,7-nitrilo-7H-dibenzo[b,h][1,4,7,10] tetraazacycloheptadecine-KN5, KN13, KN18, KN21, KN22]- [GC4713] |  |  | 18% | 21% | 
11 | Manganese(II)bis-octanoato[(4aS,13aS,17aS,21aS)-1,2,3,4,4a,5,6,12,13,13a,14,15,16, 17,17a,18,19,20,21,21a-Eicosahydro-11,7-nitrilo-7H-dibenzo[b,h][1,4,7,10] tetraazacycloheptadecine-KN5, KN13, KN18, KN21, KN22]- [GC4710] | 13% | 8% |  | 21% | 
12 | Manganese(II)bis-phenylacetato[(4aS,13aS,17aS,21aS)-1,2,3,4,4a,5,6,12,13,13a,14, 15,16,17,17a,18,19,20,21,21a-Eicosahydro-11,7-nitrilo-7H-dibenzo[b,h][1,4,7,10] tetraazacyclo-heptadecine-KN5, KN13, KN18, KN21, KN22]- [GC4718] | 32% | 28% |  |  | 
13 | Manganese(II)bis-phenylglyoxaloto[(4aS,13aS,17aS,21aS)-1,2,3,4,4a,5,6,12,13,13a,14, 15,16,17,17a,18,19,20,21,21a-Eicosahydro-11,7-nitrilo-7H-dibenzo[b,h][1,4,7,10] tetraazacyclohepta-decine-KN5, KN13, KN18, KN21, KN22]- [GC4719] | 25% | 31% | 28% |  | 
14 | Manganese(II)bis-pivaloato[(4aS,13aS,17aS,21aS)-1,2,3,4,4a,5,6,12,13,13a,14,15,16,17, 17a,18,19,20,21,21a-Eicosahydro-11,7-nitrilo-7H-dibenzo[b,h][1,4,7,10] tetraazacycloheptadecine-KN5, KN13, KN18, KN21, KN22]- [GC4709] | 17% |  |  | 22% | 
15 | Manganese(II)bis-propionato[6R-Methyl(4aR,13aR,17aR,21aR)-1,2,3,4,4a,5,6,12,13,13a,14,15,16,17,17a,18,19,20,21,21a-Eicosahydro-11,7-nitrilo-7H-dibenzo[b,h][1,4,7,10] tetraazacycloheptadecine-KN5, KN13, KN18, KN21, KN22]- [GC4747] |  |  |  | 20% | 
16 | Manganese(II)bis-propionato[(4aR,13aR,17aR,21aR)-1,2,3,4,4a,5,6,12,13,13a,14,15,16,17,17a,18,19,20,21,21a-Eicosahydro-11,7-nitrilo-7H-dibenzo[b,h][1,4,7,10] tetraazacycloheptadecine-KN5, KN13, KN18, KN21, KN22]- [GC4748] |  |  |  | 22% | 
17 | Manganese(II)bis-propionato[(4aS,13aS,17aS,21aS)-1,2,3,4,4a,5,6,12,13,13a,14,15,16, 17,17a,18,19,20,21,21a-Eicosahydro-11,7-nitrilo-7H-dibenzo[b,h][1,4,7,10] tetraaza-cycloheptadecine-KN5, KN13, KN18, KN21, KN22]- [GC4711] | 27% | 29% | 29% | 44% | Mini-Pig BioA (base oil Labrafil M1944 CS): 23%
